Read-outs that look alike come from different tables or passages of the source.
Columns and labels:
[1] = target: Aurora B (Homo sapiens, UniProt Q96GD4); test: Aurora B inhibition in cells: Histone H3 Ser10 phosphorylation by western blotting and immunofluorescence; assay type: cell-based; set-up: endogenous in cells; host or cells: U2OS (human osteosarcoma); HeLa also used for the maleate salts; key to Aurora B inhibition: +++: very efficient inhibition; −: no inhibition; conditions: for Aurora B inhibition: cells, Histone H3 Ser10 phosphorylation, western blotting and immunofluorescence, compounds 1 μM; for Aurora B kinase inhibition of maleate salts (in words): U2OS and HeLa cells, 1 μM overnight with Nocodazole, immunoblotting (FIG. 11)
Description: Actin is used as control of quantity. Cells were incubated overnight in the presence of either C1, or C2 or CH21 or C14 or DMSO(C: control). All compounds were tested at 1 μM. Proteins were detected by western blotting.
Cells were incubated with the different molecules and Aurora B inhibition is estimated by western blotting (WB) and immuno fluorescent experiments. Histone H3 phosphorylated on Ser10 is used as a marker of Aurora B kinase activity and actin as an internal control. Each WB signal is compared to the control in the absence of compound. The efficiency estimated by WB is indicated by +++: very efficient inhibition to −: no inhibition. Immunofluorescent labelling of a mitotic cell by Histone H3 illustrates Aurora B kinase activity. However immunofluorescence is less sensitive than WB. Active molecules are underlined by a square and the intensity of the line indicates the efficiency of inhibition.
FIG. 10A: Immunofluorescence with phospho-Ser10-Histone H3 antibodies. Either the percentage of positive phospho-Ser10-Histone H3 is indicated or a representative mitosis shown. […] Immunofluorescent assays were realized with a specific phospho-antibody and mitotic U2OS cells are recognized by their DNA content stained with Hoechst. On the right, a representative cell or the percentage of H3-S10-P labelled mitosis.
(§1) FIG. 10B: Immunoblotting analysis of histone H3 phosphorylation. U2OS cells were incubated overnight with Nocodazole (50 nM) in the presence of either DMSO (Co) or Compounds (1 μM). Cells were then collected and lyzed. Identical amounts of the lyzed cell samples were run on 18% acrylamide gel containing SDS.
as §1, with “FIGS. 11B and 11C:” for “FIG. 10B:”, “U2OS and HeLa” for “U2OS”
Cells were incubated with the different molecules and Aurora B inhibition is estimated by western blotting and immunofluorescent experiments. Histone H3 phosphorylated on Ser10 is used as a marker of Aurora B kinase activity and actin as an internal control. Results are represented in FIGS. 4 and 10 and Table 3.
(§2) Cells were treated by compounds, harvested and lyzed in 9M urea then supplemented with Laemmli sample buffer. Cell extracts were subjected to SDS-PAGE and transferred to nitrocellulose filter (GE Healthcare). After blocking with 5% non-fat milk in PBS for at least 1 hour, the membranes were incubated with the primary antibodies. The following antibodies were used: phospho-Histone H3 Ser10 (1:2000, Upstate Biotechnology), anti LAST1 (Cell signalling), anti Aurora B (epitomics) and anti alpha-tubulin (Sigma) Anti-rabbit horseradish peroxidase (1:5000, GE Healthcare) was used as secondary antibodies. Bands were visualized by ECL technique (Amersham Bioscience).
Cells were seeded on glass coverslips and treated by compounds (1 μM) overnight. After treatment, cells were fixed in 4% formaldhehyde at 37° C. for 15 minutes, then permeabilized for 5 minutes with Triton X-100 in PBS.

[2] = tested on: HeLa cells; test: Cell viability / antiproliferative assay; assay type: cell-based; conditions: HeLa cells, average of three independent experiments, concentration that induced 50% death, read-out: IC50 (in nM), antiproliferative assay
Description: Antiproliferative assays with HeLa cells have been performed with the preferred compounds and compared to the C1 and C2. The average of three independent experiments is shown. IC50 obtained with C1 and C2 were previously reported in Hoang et al, 2009, and are indicated for comparison. The lateral chain of each molecule is recalled, knowing that all the molecules have an oxo group at position 11. IC50 are indicated, i.e. the concentration that induced 50% death.
H358, H322 (lung cancer cells), U373 (glioblastomes) and HeLa ([…]) were grown in DMEM (1.5 g/L glucose) whereas HL60 (human myeloid cell line) cells were in RPMI 1640. U2OS (a human osteosarcoma cell line) cells were cultured in McCoy's Medium 5 A and liver cells (SK Hep 1) in DMEM (4 g/L glucose, (Gibco-Invitrogen). Media (Gibco-Invitrogen), were supplemented with 10% heat-inactivated foetal bovine serum (Gibco-Invitrogen), L-glutamine (2 mM), penicillin (100 UI/ml) and streptomycin (100 μg/ml).
Cell proliferation assays were conducted in 96 well culture plates. Assays were run in triplicate. Cell viability was estimated upon 72 h of treatment with varying concentrations of compound by addition of CellTiter 96Queous one Solution Reagent (Promega) directly to culture wells under conditions defined by the manufacturer.

[3] = target: T1, NUAK1 (Homo sapiens, UniProt O60285); test: In vitro IC50 on recombinant kinase; assay type: biochemical
T1 construct: Reaction biology Corp (USA), service
T1 sequence (O60285 1-661): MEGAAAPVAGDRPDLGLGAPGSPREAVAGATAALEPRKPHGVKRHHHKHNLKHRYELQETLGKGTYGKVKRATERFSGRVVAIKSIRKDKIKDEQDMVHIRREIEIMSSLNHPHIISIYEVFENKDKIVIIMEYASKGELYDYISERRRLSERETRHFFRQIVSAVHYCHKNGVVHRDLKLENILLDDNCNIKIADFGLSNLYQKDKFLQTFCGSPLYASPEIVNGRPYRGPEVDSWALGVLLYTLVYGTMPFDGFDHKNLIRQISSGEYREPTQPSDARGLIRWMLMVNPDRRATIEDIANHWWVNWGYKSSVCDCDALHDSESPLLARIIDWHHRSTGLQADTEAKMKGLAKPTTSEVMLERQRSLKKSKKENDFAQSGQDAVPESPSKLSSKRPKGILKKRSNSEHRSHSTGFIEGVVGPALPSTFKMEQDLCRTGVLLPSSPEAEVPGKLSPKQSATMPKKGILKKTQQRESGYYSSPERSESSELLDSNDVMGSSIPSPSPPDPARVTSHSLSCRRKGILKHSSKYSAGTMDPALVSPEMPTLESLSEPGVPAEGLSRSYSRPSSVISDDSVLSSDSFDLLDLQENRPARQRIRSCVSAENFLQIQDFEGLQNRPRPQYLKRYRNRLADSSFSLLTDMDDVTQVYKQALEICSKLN
Description: The efficiency of the 3-amino-ethoxy compounds to inhibit Nuak1 was determined in vitro.
The profiling was performed at the MRC (Dundee University), in duplicate, on a set of 121 kinases. The panel is representative of the major different classes of kinases. Compounds were used at the concentration of 1 μM. In vitro, IC50 were determined on recombinant kinases by Reaction biology Corp (USA).

[4] = target: T1, NUAK1; test: Nuak1 inhibition in cellulo: LATS1 stabilization by western blot; assay type: cell-based; conditions: HeLa cells treated ON; whole cell extracts, WB, compared to control
Description: HeLa cells were treated ON by C21 (also named CH21) and C14M and compared to the control (C0). Whole cell extracts were analyzed by WB with anti LATS1 monoclonal antibody and the loading was quantified through the tubulin signal.
Therefore the possibility of inhibiting Nuakl, in cellulo, was evaluated through the stabilization of the Large Antigen Tumour Suppressor LATS1.
as §2

Sequence of Aurora B (Q96GD4 whole entry): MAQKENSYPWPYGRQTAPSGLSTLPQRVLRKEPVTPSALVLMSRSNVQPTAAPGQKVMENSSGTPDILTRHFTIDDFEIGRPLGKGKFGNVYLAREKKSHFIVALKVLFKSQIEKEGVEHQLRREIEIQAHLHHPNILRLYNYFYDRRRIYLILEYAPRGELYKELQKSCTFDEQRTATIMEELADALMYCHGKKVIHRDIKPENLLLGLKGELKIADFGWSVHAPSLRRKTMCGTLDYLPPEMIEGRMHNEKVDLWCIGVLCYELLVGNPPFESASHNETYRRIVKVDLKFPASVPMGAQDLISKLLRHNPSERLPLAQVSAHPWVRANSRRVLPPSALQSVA

Row | Structure (SMILES) | Aurora B inhibition [1] | other results
1 | Cc1cnc(Cl)c2c1[nH]c1ccc3cc(OCCN4CCOCC4)ccc3c12 [Compound C05, 11-Chloro-3-(2-(morpholin-4-yl)ethoxy)-8-methyl-7H-benzo[e]pyrido(4,3-b)indole] | − | 
2 | Cc1c[nH]c(=O)c2c1[nH]c1ccc3cc(OCCN4CCOCC4)ccc3c12 [Compound C07, 3-(2-(Morpholin-4-yl)ethoxy)-8-methyl-7H,10H-benzo[e]pyrido(4,3-b)indol-11-one] | +++ | IC50 [2]: 107 ± 12 nM; IC50 [3]: 1.6 nM
3 | Cc1c[nH]c(=O)c2c1[nH]c1ccc3cc(OCCN4CCOCC4)ccc3c12 [Compound C07M, 3-(2-(Morpholin-4-yl)ethoxy)-8-methyl-7H,10H-benzo[e]pyrido(4,3-b)indol-11-one] |  | IC50 [2]: 287 ± 32 nM; Aurora B kinase inhibition of maleate salts (in words) [1]: maintained
4 | COc1ccc2c(c1)CCc1[nH]c3c(C)c[nH]c(=O)c3c1-2 [Compound C11, reference compound] | − | 
5 | COc1ncc(C)c2[nH]c3ccc4cc(OCCN(C)C)ccc4c3c12 [Compound C12, 11-Methoxy-3-(2-N,N-dimethylaminoethoxy)-8-methyl-7H-benzo[e]pyrido(4,3-b)indole] | − | 
6 | Cc1c[nH]c(=O)c2c1[nH]c1ccc3cc(OCCN(C)C)ccc3c12 [Compound C14M, 3-(2-N,N-Dimethylaminoethoxy)-8-methyl-7H,10H-benzo[e]pyrido(4,3-b)indol-11-one] |  | IC50 [2]: 114 ± 82 nM; LATS1 protein level (in words) [4]: large increase; Aurora B kinase inhibition of maleate salts (in words) [1]: maintained
7 | Cc1cncc2c1[nH]c1ccc3cc(OCCCN(C)C)ccc3c12 [Compound C23, 3-(3-N,N-dimethylaminopropoxy)-8-methyl-7H-benzo[e]pyrido(4,3-b)indole] | − | 
8 | CCc1cnc(Cl)c2c1[nH]c1ccc3cc(OCCN(C)C)ccc3c12 [Compound C40, 11-Chloro-3-(2-N,N-dimethylaminoethoxy)-8-ethyl-7H-benzo[e]pyrido(4,3-b)indole] | − | 
9 | CCc1c[nH]c(=O)c2c1[nH]c1ccc3cc(OCCN(C)C)ccc3c12 [Compound C48, 3-(2-N,N-dimethylaminoethoxy)-8-ethyl-7H,11H-benzo[e]pyrido(4,3-b)indol-11-one] | +++ | IC50 ([2]; Homo sapiens, HeLa): 53 ± 3 nM; IC50 [3]: 5.7 nM
10 | CCc1c[nH]c(=O)c2c1[nH]c1ccc3cc(OCCN(C)C)ccc3c12 [Compound C48M, 3-(2-N,N-dimethylaminoethoxy)-8-ethyl-7H,11H-benzo[e]pyrido(4,3-b)indol-11-one] |  | IC50 [2]: 63 ± 17 nM; Aurora B kinase inhibition of maleate salts (in words) [1]: maintained
11 | COCCOc1ccc2c(ccc3[nH]c4c(C)cnc(Cl)c4c32)c1 [Compound C708, 11-Chloro-3-(2-methoxyethoxy)-8-methyl-7H-benzo[e]pyrido(4,3-b)indole] | − | 
12 | Cc1cnc(Cl)c2c1[nH]c1ccc3cc(OCCN4CCCCC4)ccc3c12 [Compound C709, 11-Chloro-3-(2-(piperidin-1-yl)ethoxy)-8-methyl-7H-benzo[e]pyrido(4,3-b)indole] | − | 
13 | Cc1c[nH]c(=O)c2c1[nH]c1ccc3cc(OCCN4CCCCC4)ccc3c12 [Compound C710, 3-(2-(Piperidin-1-yl)ethoxy)-8-methyl-7H,10H-benzo[e]pyrido(4,3-b)indol-11-one] | +++ | 
14 | COCCOc1ccc2c(ccc3[nH]c4c(C)c[nH]c(=O)c4c32)c1 [Compound C711, 3-(2-Methoxyethoxy)-8-methyl-7H,10H-benzo[e]pyrido(4,3-b)indol-11-one] | − | 

Reference: patent publication US20140073637A1, “AMINO-SUBSTITUTED-ALKYLOXY-BENZO[E]PYRIDO[4,3-B]INDOLE DERIVATIVES AS NEW POTENT KINASE INHIBITORS” (INSTITUT CURIE, priority 2011, published 2014)
